The results in this text go back to paper PMC4461796, “Synthesis, anticholinesterase and antioxidant potentials of ketoesters derivatives of succinimides: a possible role in the management of Alzheimer’s” (Chemistry Central Journal, 2015).

Converted amounts (≈) assume the structure as drawn. “And” between values parts separate entries of the source, which are not always exact repeats. Equal values may be shown once.

T1 sequence (P81908 whole entry): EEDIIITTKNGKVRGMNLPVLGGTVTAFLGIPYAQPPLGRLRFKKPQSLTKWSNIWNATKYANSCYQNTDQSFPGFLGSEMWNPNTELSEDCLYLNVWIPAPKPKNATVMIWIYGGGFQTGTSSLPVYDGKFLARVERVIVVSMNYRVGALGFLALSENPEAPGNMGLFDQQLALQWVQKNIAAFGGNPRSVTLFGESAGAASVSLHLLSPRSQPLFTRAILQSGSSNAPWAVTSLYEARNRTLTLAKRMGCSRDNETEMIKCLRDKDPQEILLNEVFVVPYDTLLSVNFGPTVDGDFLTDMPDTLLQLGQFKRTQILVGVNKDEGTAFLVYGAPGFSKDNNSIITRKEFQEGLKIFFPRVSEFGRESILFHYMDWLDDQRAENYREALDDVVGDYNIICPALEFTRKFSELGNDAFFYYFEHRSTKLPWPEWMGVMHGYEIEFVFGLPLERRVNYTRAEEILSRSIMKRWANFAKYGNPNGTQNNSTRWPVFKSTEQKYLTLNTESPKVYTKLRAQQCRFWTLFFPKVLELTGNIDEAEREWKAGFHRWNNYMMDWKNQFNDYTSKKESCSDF

Tested on in one experiment: not listed separately
The experiment is described as follows: ABTS free radicals scavenging assay. The settings on record: conc. 250 μg/mL; n = 3. How it is done:
ABTS (2, 2-azinobis [3-ethylbenzthiazoline]-6-sulfonic acid) free radicals were also used to confirm the antioxidant activity of the synthesized compounds. The activity is based on the capacity of antioxidants to scavenge ABTS^+ radical cation causing a reduction in absorbance at 734 nm. ABTS (7 mM) and […] (2.45 mM) solutions were prepared and mixed. The resultant mixture was maintained at room temperature in dark for 12–16 h to get dark color solution containing ABTS^+ radical cations. At the time of activity, ABTS^+ radical cation solution was diluted with Phosphate buffer (0.01 M) pH 7.4 to adjust an absorbance value of 0.70 at 734 nm. Radical scavenging capability of the compounds was analyzed by mixing 300 μl of compound with 3.0 mL of ABTS solution in cuvette. The reduction in absorbance was measured spectrophotometrically after one minute of mixing the solutions and continued for six min. Ascorbic acid was used as a positive control. The assay was repeated three times and percent inhibition was calculated with formula; %scavengingeffect=Controlabsorbance‐Sampleabsorbance/Controlabsorbance×100
(§1) Radical scavenging ability was calculated by a linear regression analysis among the inhibition percentages against the compounds concentrations via the Excel program.
For the molecule `O=C1O[C@H]([C@@H](O)CO)C(O)=C1O` [Ascorbic acid, reference compound], the “Percent inhibition (mean ± SEM), ABTS free radicals scavenging” value came out at 84.66 ± 0.88%.
Turning to `CCOC(=O)C1(C2CC(=O)N(c3ccccc3)C2=O)CCCC1=O` (centres unmarked) [Compound 1, Ethyl 2-oxo-1-(2,5-dioxo-1-phenylpyrrolidin-3-yl)cyclopentanecarboxylate], the “Percent inhibition (mean ± SEM), ABTS free radicals scavenging” value came out at 65.00 ± 0.57 %.
Regarding `CCOC(=O)C1(C2CC(=O)N(Cc3ccccc3)C2=O)CCCC1=O` (centres unmarked) [Compound 2, Ethyl 1-(1-benzyl-2,5-dioxopyrrolidin-3-yl)-2-oxocyclopentanecarboxylate], the “Percent inhibition (mean ± SEM), ABTS free radicals scavenging” value stood at 59.66 ± 0.66 %.

Still in this experiment, the particulars now being: conc. 500 μg/mL; n = 3.
`O=C1O[C@H]([C@@H](O)CO)C(O)=C1O` [Ascorbic acid, reference compound]: the “Percent inhibition (mean ± SEM), ABTS free radicals scavenging” value is given as 87.23 ± 0.47%.
Still for that read-out and setting: the result for `CCOC(=O)C1(C2CC(=O)N(c3ccccc3)C2=O)CCCC1=O` (centres unmarked) [Compound 1, Ethyl 2-oxo-1-(2,5-dioxo-1-phenylpyrrolidin-3-yl)cyclopentanecarboxylate] reads 77.45 ± 0.54 %; that for `CCOC(=O)C1(C2CC(=O)N(Cc3ccccc3)C2=O)CCCC1=O` (centres unmarked) [Compound 2, Ethyl 1-(1-benzyl-2,5-dioxopyrrolidin-3-yl)-2-oxocyclopentanecarboxylate], 72.45 ± 0.65 %.

The experiment is the same for the next values; noted with them: conc. 1000 μg/mL; n = 3.
Regarding `O=C1O[C@H]([C@@H](O)CO)C(O)=C1O` [Ascorbic acid, reference compound], the “Percent inhibition (mean ± SEM), ABTS free radicals scavenging” value was 91.62 ± 0.62%.
Still for that read-out and setting: the result for `CCOC(=O)C1(C2CC(=O)N(c3ccccc3)C2=O)CCCC1=O` (centres unmarked) [Compound 1, Ethyl 2-oxo-1-(2,5-dioxo-1-phenylpyrrolidin-3-yl)cyclopentanecarboxylate] reads 88.51 ± 0.62 %; that for `CCOC(=O)C1(C2CC(=O)N(Cc3ccccc3)C2=O)CCCC1=O` (centres unmarked) [Compound 2, Ethyl 1-(1-benzyl-2,5-dioxopyrrolidin-3-yl)-2-oxocyclopentanecarboxylate], 86.49 ± 0.49 %.

The experiment is the same for the next values; noted with them: from 250-1000 μg/mL tested concentrations.
As for `O=C1O[C@H]([C@@H](O)CO)C(O)=C1O` [Ascorbic acid, reference compound], the “IC50 (ABTS free radicals scavenging)” value was under 0.1 µg/mL.
For the molecule `CCOC(=O)C1(C2CC(=O)N(c3ccccc3)C2=O)CCCC1=O` (centres unmarked) [Compound 1, Ethyl 2-oxo-1-(2,5-dioxo-1-phenylpyrrolidin-3-yl)cyclopentanecarboxylate], the “IC50 (ABTS free radicals scavenging)” value turned out to be 90 µg/mL (≈ 273 µM).
Still for that read-out and setting: the result for `CCOC(=O)C1(C2CC(=O)N(Cc3ccccc3)C2=O)CCCC1=O` (centres unmarked) [Compound 2, Ethyl 1-(1-benzyl-2,5-dioxopyrrolidin-3-yl)-2-oxocyclopentanecarboxylate] reads 141 µg/mL (≈ 411 µM).

The next experiment has as its target T1, butyrylcholinesterase (BChE) from equine serum (Equus caballus, UniProt P81908).
T1 construct: BChE equine serum Lyophilized (CAS 9001-08-5 Sigma-Aldrich GmbH USA); purchased Sigma-Aldrich CAS 9001-08-5 (catalogue number not given); host or cells: equine serum
The experiment is described as follows: Butyrylcholinesterase inhibition assay (Ellman's spectrophotometric assay). The experiment is classed as biochemical. The conditions noted are these: from 250-1000 μg/mL tested concentrations. As to the method: (§2) The assay is based on the acetylcholinesterase promoted hydrolysis of acetylthiocholine iodide and butyrylthiocholine iodide by butyrylcholinesterase. The hydrolysis processes give 5-thio-2-nitrobenzoate anion followed by complexation with DTNB (which give yellow color) and is detected by the spectrophotometer.
(§3) Compounds (each separately) were dissolved in phosphate buffer (0.1 M) in concentrations ranging from 250–1000 μg/mL. […] Finally, potassium hydroxide was used to adjust pH. AChE (518 U/mg solid) and BChE (7–16 U/mg) were diluted in freshly prepared buffer pH 8.0 until final concentrations of 0.03 U/mL and 0.01 U/mL were obtained. Solutions of DTNB (0.0002273 M), ATchI and BTchI (0.0005 M) were prepared in distilled water and were kept in Eppendorf caps in the refrigerator.
(§4) For each assay, an enzyme solution of 5 μl was added to the cuvette followed by addition of compound (205 μl), and finally DTNB reagent (5 μl). The solution mixture was maintained at 30 °C for 15 min using water bath with subsequent addition of substrate solution (5 μl). A double beam spectrophotometer was used to measure the absorbance at 412 nm. […] The absorbances along with the reaction time were taken for four minutes at 30 °C and were repeated in triplicate. Finally, the enzyme activity and enzyme inhibition by control and tested samples were calculated from the rate of absorption with change in time (V = ΔAbs /Δt) as follow;
Where Vmax is enzyme activity in the absence of inhibitor drug.
as §1
On to `CCOC(=O)C1(C2CC(=O)N(c3ccccc3)C2=O)CCCC1=O` (centres unmarked) [Compound 1, Ethyl 2-oxo-1-(2,5-dioxo-1-phenylpyrrolidin-3-yl)cyclopentanecarboxylate], for which 128 µM corresponded to half-maximal inhibition (IC50).
On to `CCOC(=O)C1(C2CC(=O)N(Cc3ccccc3)C2=O)CCCC1=O` (centres unmarked) [Compound 2, Ethyl 1-(1-benzyl-2,5-dioxopyrrolidin-3-yl)-2-oxocyclopentanecarboxylate], for which the IC50 was under 0.291 µM.

Still in this experiment, the particulars now being: read-out: Percent AChEI (mean ± SEM) (Table 3, butyrylcholinesterase inhibition).
In the case of `CCOC(=O)C1(C2CC(=O)N(c3ccccc3)C2=O)CCCC1=O` (centres unmarked) [Compound 1, Ethyl 2-oxo-1-(2,5-dioxo-1-phenylpyrrolidin-3-yl)cyclopentanecarboxylate], the inhibition at 250 µg/mL was 72.5 ± 0.02%, the inhibition at 500 µg/mL came out at 82.5 ± 0.18% and the inhibition at 1000 µg/mL amounted to 90.25 ± 0.02%.
The matching figures for `CCOC(=O)C1(C2CC(=O)N(Cc3ccccc3)C2=O)CCCC1=O` (centres unmarked) [Compound 2, Ethyl 1-(1-benzyl-2,5-dioxopyrrolidin-3-yl)-2-oxocyclopentanecarboxylate]: 84.25 ± 0.12%, 86.75 ± 0.22% and 90 ± 0.1%.

A further experiment deals with T2, acetylcholinesterase (AChE) from Electric eel (Electrophorus electricus, UniProt O42275).
T2 construct: AChE Electric eel (type-VI-S, CAS 9000-81-1 Sigma-Aldrich GmbH USA); purchased Sigma-Aldrich type-VI-S (CAS 9000-81-1; catalogue number not given)
T2 sequence (O42275 24-633): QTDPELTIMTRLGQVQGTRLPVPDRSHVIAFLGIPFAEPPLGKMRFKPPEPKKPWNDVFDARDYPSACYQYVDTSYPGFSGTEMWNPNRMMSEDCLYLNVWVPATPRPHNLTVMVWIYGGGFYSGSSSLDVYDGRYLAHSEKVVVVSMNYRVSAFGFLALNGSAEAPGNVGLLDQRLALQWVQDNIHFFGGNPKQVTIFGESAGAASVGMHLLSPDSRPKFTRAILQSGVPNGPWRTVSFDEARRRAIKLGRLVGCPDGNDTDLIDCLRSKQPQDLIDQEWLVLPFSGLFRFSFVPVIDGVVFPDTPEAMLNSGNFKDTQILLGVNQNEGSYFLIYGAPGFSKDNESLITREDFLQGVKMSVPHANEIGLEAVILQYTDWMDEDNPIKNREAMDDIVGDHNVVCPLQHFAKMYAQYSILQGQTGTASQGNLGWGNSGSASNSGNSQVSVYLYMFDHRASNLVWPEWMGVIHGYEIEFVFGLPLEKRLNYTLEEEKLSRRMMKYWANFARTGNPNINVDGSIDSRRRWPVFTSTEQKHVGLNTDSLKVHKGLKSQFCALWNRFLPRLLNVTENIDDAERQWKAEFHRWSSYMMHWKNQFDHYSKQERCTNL
Experiment: not given
It counts as biochemical. The conditions noted are these: concentration 250 μg/mL; n = 3. As to the method: as §2, §3, §4
Where Vmax is enzyme activity in the absence of inhibitor drug. […]
As to `CCOC(=O)C1(C2CC(=O)N(c3ccccc3)C2=O)CCCC1=O` (centres unmarked) [Compound 1, Ethyl 2-oxo-1-(2,5-dioxo-1-phenylpyrrolidin-3-yl)cyclopentanecarboxylate], the “Percent AChEI (mean ± SEM)” value is recorded as 93.25 ± 0.25 ^ns %.
Same read-out and setting: the result for `CCOC(=O)C1(C2CC(=O)N(Cc3ccccc3)C2=O)CCCC1=O` (centres unmarked) [Compound 2, Ethyl 1-(1-benzyl-2,5-dioxopyrrolidin-3-yl)-2-oxocyclopentanecarboxylate] reads 91.00 ± 0.52% and 91.00 ± 0.52 ^ns %.

Staying with this experiment, now noted: concentration 500 μg/mL; n = 3.
On to `CCOC(=O)C1(C2CC(=O)N(c3ccccc3)C2=O)CCCC1=O` (centres unmarked) [Compound 1, Ethyl 2-oxo-1-(2,5-dioxo-1-phenylpyrrolidin-3-yl)cyclopentanecarboxylate], for which the “Percent AChEI (mean ± SEM)” value is given as 94.25 ± 0.05 ^ns %.
Turning to `CCOC(=O)C1(C2CC(=O)N(Cc3ccccc3)C2=O)CCCC1=O` (centres unmarked) [Compound 2, Ethyl 1-(1-benzyl-2,5-dioxopyrrolidin-3-yl)-2-oxocyclopentanecarboxylate], the “Percent AChEI (mean ± SEM)” value was 91.75 ± 0.04% and 91.75 ± 0.04 ^ns %.

The same experiment, now with this note: concentration 1000 μg/mL; n = 3.
In the case of `CCOC(=O)C1(C2CC(=O)N(c3ccccc3)C2=O)CCCC1=O` (centres unmarked) [Compound 1, Ethyl 2-oxo-1-(2,5-dioxo-1-phenylpyrrolidin-3-yl)cyclopentanecarboxylate], the “Percent AChEI (mean ± SEM)” value is 98.00 ± 0.70% and 98.00 ± 0.70^ns %.
As to `CCOC(=O)C1(C2CC(=O)N(Cc3ccccc3)C2=O)CCCC1=O` (centres unmarked) [Compound 2, Ethyl 1-(1-benzyl-2,5-dioxopyrrolidin-3-yl)-2-oxocyclopentanecarboxylate], the “Percent AChEI (mean ± SEM)” value was 98.75 ± 0.25% and 98.75% and 98.75 ± 0.25 ^ns %.

Tested on in another experiment: not listed separately
The experiment is described as follows: DPPH free radicals scavenging assay. The settings on record: conc. 250 μg/mL; n = 3. How it is done: The compounds’ free radical scavenging ability was evaluated using 1,1-diphenyl, 2-picrylhydrazyl (DPPH) free radicals. Different dilutions (250, 500 and 1000 μg/mL) of compounds (0.1 mL) were added to 0.004 % methanolic solution of DPPH. After 30 min the absorbance was measured at 517 nm using UV spectrophotometer. Ascorbic acid was used as positive control.
Percent scavenging activity was calculated as; A0−A1/A0×100
Where A0 is absorbance of control and A1 is the absorbance of the compound sample. Each experiment was performed in triplicate and inhibition curves were constructed using the GraphPad prism program (GraphPAD, San Diego, California, USA) and median inhibitory concentrations (IC50) values were determined.
as §1
In the case of `O=C1O[C@H]([C@@H](O)CO)C(O)=C1O` [Ascorbic acid, reference compound], the “Percent inhibition (mean ± SEM), DPPH free radicals scavenging” value amounted to 78.61 ± 0.23%.
On the same count and under the same terms, for `CCOC(=O)C1(C2CC(=O)N(c3ccccc3)C2=O)CCCC1=O` (centres unmarked) [Compound 1, Ethyl 2-oxo-1-(2,5-dioxo-1-phenylpyrrolidin-3-yl)cyclopentanecarboxylate] the value was 35.60 ± 0.75 %; for `CCOC(=O)C1(C2CC(=O)N(Cc3ccccc3)C2=O)CCCC1=O` (centres unmarked) [Compound 2, Ethyl 1-(1-benzyl-2,5-dioxopyrrolidin-3-yl)-2-oxocyclopentanecarboxylate], 33.61 ± 0.66 %.

The same experiment, now with this note: conc. 500 μg/mL; n = 3.
Turning to `O=C1O[C@H]([C@@H](O)CO)C(O)=C1O` [Ascorbic acid, reference compound], the “Percent inhibition (mean ± SEM), DPPH free radicals scavenging” value is listed as 81.71 ± 0.54%.
Take `CCOC(=O)C1(C2CC(=O)N(c3ccccc3)C2=O)CCCC1=O` (centres unmarked) [Compound 1, Ethyl 2-oxo-1-(2,5-dioxo-1-phenylpyrrolidin-3-yl)cyclopentanecarboxylate]: the “Percent inhibition (mean ± SEM), DPPH free radicals scavenging” value turned out to be 52.49 ± 0.78 %.
Still for that read-out and setting: the result for `CCOC(=O)C1(C2CC(=O)N(Cc3ccccc3)C2=O)CCCC1=O` (centres unmarked) [Compound 2, Ethyl 1-(1-benzyl-2,5-dioxopyrrolidin-3-yl)-2-oxocyclopentanecarboxylate] reads 52.48 ± 0.56 %.

The same experiment, now with this note: conc. 1000 μg/mL; n = 3.
As to `O=C1O[C@H]([C@@H](O)CO)C(O)=C1O` [Ascorbic acid, reference compound], the “Percent inhibition (mean ± SEM), DPPH free radicals scavenging” value is recorded as 93.56 ± 0.37%.
The same measure, in the same setting: for `CCOC(=O)C1(C2CC(=O)N(c3ccccc3)C2=O)CCCC1=O` (centres unmarked) [Compound 1, Ethyl 2-oxo-1-(2,5-dioxo-1-phenylpyrrolidin-3-yl)cyclopentanecarboxylate] the value was 72.41 ± 0.45 %; for `CCOC(=O)C1(C2CC(=O)N(Cc3ccccc3)C2=O)CCCC1=O` (centres unmarked) [Compound 2, Ethyl 1-(1-benzyl-2,5-dioxopyrrolidin-3-yl)-2-oxocyclopentanecarboxylate], 70.32 ± 0.61 %.

The experiment is the same for the next values; noted with them: from 250-1000 μg/mL tested concentrations.
For `O=C1O[C@H]([C@@H](O)CO)C(O)=C1O` [Ascorbic acid, reference compound], the “IC50 (DPPH free radicals scavenging)” value was 20 µg/mL (≈ 114 µM).
Regarding `CCOC(=O)C1(C2CC(=O)N(c3ccccc3)C2=O)CCCC1=O` (centres unmarked) [Compound 1, Ethyl 2-oxo-1-(2,5-dioxo-1-phenylpyrrolidin-3-yl)cyclopentanecarboxylate], the “IC50 (DPPH free radicals scavenging)” value turned out to be 440 µg/mL (≈ 1340 µM).
On the same count and under the same terms, the result for `CCOC(=O)C1(C2CC(=O)N(Cc3ccccc3)C2=O)CCCC1=O` (centres unmarked) [Compound 2, Ethyl 1-(1-benzyl-2,5-dioxopyrrolidin-3-yl)-2-oxocyclopentanecarboxylate] reads 460 µg/mL (≈ 1340 µM).
